Each structure is given as a SMILES string. Like-named read-outs stand apart in the source and are kept apart here.

15 compounds from patent US20150031733A1, “TETRAZOLINONE COMPOUNDS AND ITS USE” (SUMITOMO CHEMICAL COMPANY, LIMITED, priority 2012, published 2015) can be followed below.

Holding throughout (assay type): in vivo
For assay [1], the system named is housefly (Musca domestica). The assay is described as follows: Housefly mortality test on treated filter paper. Particulars: 500 ppm solution 0.7 mL on filter paper, female adult, after 24 hours. As for the experimental part: Each formulation containing the present Compounds […] prepared according to the above-mentioned Formulation examples was diluted with water so that the active ingredient concentration was set to 500 ppm and the testing drug solutions were prepared. […] Ten (10) individuals of female adult housefly (Musca domestica) was released into the polyethylene cup and the cup was covered with the lid. After 24 hours, the number of the dead insects was counted. The mortality of insects was calculated by the following equation. Mortality of insects(%)=(Number of dead insects/Number of tested insects)×100

The test system of assay [2] is cabbage moth (Plutella xylostella). Kind of assay: Cabbage moth mortality test on sprayed cabbage. Particulars: 500 ppm, 20 mL/cup sprayed on cabbage, three instar larval stages, after 5 days. As for the experimental part:
The testing drug solutions to be used in this Test example were prepared by diluting the formulations prepared according to the above-mentioned Formulation examples with an ion-exchange water so that the active ingredient concentration was set to 500 ppm. Cabbage (green ball) was planted in a polyethylene cup and was grown until the third true leaf or the fourth true leaf was developed. To the cabbage (Brassicae oleracea) was sprayed the above-mentioned testing solutions in a ratio of 20 mL/cup. After the drug solutions were dried, to a polyethylene cup (diameter 5.5 cm) covered with a filter paper on the bottom, the cabbage cut out from the root was installed and five heads of cabbage moth (Plutella xylostella) at the three instar larval stages were released into the cup and the cup was covered with the lid. The cup was held at 25° C. and after 5 days, the number of the surviving insects was counted and the mortality of insects was calculated by the following equation. Mortality of insects(%)=(Number of dead insects/Number of tested insects)×100

Assay [3] concerns common house mosquito (Culex pipiens pallens). The assay is described as follows: Common house mosquito larva mortality test in treated water. Particulars: active ingredient concentration 3.5 ppm in water, last instar larva, read-out: mortality of insects. As for the experimental part:
Each formulation containing the present Compounds […] prepared according to the above-mentioned Formulation examples was diluted with water so that the active ingredient concentration was set to 500 ppm and the testing drug solutions were prepared. The above-mentioned drug solutions 0.7 mL were added to an ion-exchange water 100 mL (an active ingredient concentration: 3.5 ppm). Twenty (20) last instar larva of common house mosquito (Culex pipiens pallens) were released into the solutions and after 1 day, the number of the dead insects was counted. The mortality of insects was calculated by the following equation. Mortality of insects(%)=(Number of dead insects/Number of tested insects)×100 The testing drug solutions to be used in this Test example were prepared by diluting the formulations prepared according to the above-mentioned Formulation examples with an ion-exchange water so that the active ingredient concentration was set to 500 ppm. The above-mentioned drug solutions 0.7 mL were added to an ion-exchange water 100 mL so that the active ingredient concentration was set to 3.5 ppm. Twenty (20) last instar larva of common house mosquito (Culex pipiens pallens) were released into the solutions and after […], the number of the dead insects was counted. The mortality of insects was calculated by the following equation. Mortality of insects(%)=(Number of dead insects/Number of tested insects)×100

As for `Cc1cccc(-n2nnn(C)c2=O)c1COc1nc(-c2ccc(I)cc2)cs1` [Compound T033, 2-{[1-(4,5-dihydro-4-methyl-5-oxo-1H-tetrazole-1-yl)-3-methylphenyl-2-yl]methyloxy}-4-(4-iodophenyl)thiazole], the mortality of insects in assay [1] is given as 100%.
Regarding `Cc1cccc(-n2nnn(C)c2=O)c1COc1nc(-c2ccc(Br)cc2F)cs1` [Compound T034, 2-{[1-(4,5-dihydro-4-methyl-5-oxo-1H-tetrazole-1-yl)-3-methylphenyl-2-yl]methyloxy}-4-(4-bromo-2-fluorophenyl)thiazole], the mortality of insects in assay [2] turned out to be 80%.
Still for that read-out and setting: the value for `Cc1cccc(-n2nnn(C)c2=O)c1COc1nc(-c2c(F)c(F)c(F)c(F)c2F)cs1` [Compound T036, 2-{[1-(4,5-dihydro-4-methyl-5-oxo-1H-tetrazole-1-yl)-3-methylphenyl-2-yl]methyloxy}-4-(2,3,4,5,6-pentafluorophenyl)thiazole] was 80%.
In the case of `Cc1ccc(-c2csc(OCc3c(C)cccc3-n3nnn(C)c3=O)n2)cc1` [Compound T039, 2-{[1-(4,5-dihydro-4-methyl-5-oxo-1H-tetrazole-1-yl)-3-methylphenyl-2-yl]methyloxy}-4-(4-methylphenyl)thiazole], the mortality of insects in assay [1] is recorded as 100%.
In assay [2], `CCCCc1ccc(-c2csc(OCc3c(C)cccc3-n3nnn(C)c3=O)n2)cc1` [Compound T041, 2-{[1-(4,5-dihydro-4-methyl-5-oxo-1H-tetrazole-1-yl)-3-methylphenyl-2-yl]methyloxy}-4-(4-butylphenyl)thiazole] yielded a mortality of insects of 80%.
Compound `Cc1cccc(-n2nnn(C)c2=O)c1COc1nc(-c2ccc(C(C)(C)C)cc2)cs1` [Compound T042, 2-{[1-(4,5-dihydro-4-methyl-5-oxo-1H-tetrazole-1-yl)-3-methylphenyl-2-yl]methyloxy}-4-[4-(1,1-dimethylethyl)phenyl]thiazole] returned a mortality of insects in assay [2] of 80%. Besides, in assay [3] (192 h, after 8 day), the pest or weed control at 3.5 ppm was 100%.
The like results for `Cc1ccccc1-c1csc(OCc2c(Br)cccc2-n2nnn(C)c2=O)n1` [Compound T091, 2-{[1-(4,5-dihydro-4-methyl-5-oxo-1H-tetrazole-1-yl)-3-bromophenyl-2-yl]methyloxy}-4-(2-methylphenyl)thiazole] were, in that order, 80% and 100%.
As to `CCc1cccc(-n2nnn(C)c2=O)c1COc1nc(-c2ccccc2C)cs1` [Compound T097, 2-{[1-(4,5-dihydro-4-methyl-5-oxo-1H-tetrazole-1-yl)-3-ethylphenyl-2-yl]methyloxy}-4-(2-methylphenyl)thiazole], the pest or weed control at 3.5 ppm in assay [3] (192 h, after 8 day) turned out to be 100%.
As for `CCc1ccccc1-c1csc(OCc2c(C)cccc2-n2nnn(C)c2=O)n1` [Compound T125, 2-{[1-(4,5-dihydro-4-methyl-5-oxo-1H-tetrazole-1-yl)-3-methylphenyl-2-yl]methyloxy}-4-(2-ethylphenyl)thiazole], in assay [2], the mortality of insects is 80%. Further, the pest or weed control at 3.5 ppm in assay [3] (24 h, after 1 day) was determined as 100%.
Take `COc1cc(Cl)ccc1-c1csc(OCc2c(C)cccc2-n2nnn(C)c2=O)n1` [Compound T143, 2-{[1-(4,5-dihydro-4-methyl-5-oxo-1H-tetrazole-1-yl)-3-methylphenyl-2-yl]methyloxy}-4-(4-chloro-2-methoxyphenyl)thiazole]: the pest or weed control at 3.5 ppm in assay [3] (24 h, after 1 day) is 100%.
Turning to `CCCCCCCc1ccccc1-c1csc(OCc2c(C)cccc2-n2nnn(C)c2=O)n1` [Compound T144, 2-{[1-(4,5-dihydro-4-methyl-5-oxo-1H-tetrazole-1-yl)-3-methylphenyl-2-yl]methyloxy}-4-(2-heptylphenyl)thiazole], in assay [3] (192 h, after 8 day), the pest or weed control at 3.5 ppm stood at 100%.
For the compound `Cc1cccc(-n2nnn(C)c2=O)c1COc1nc(-c2cccc(Br)c2)cs1` [Compound T145, 2-{[1-(4,5-dihydro-4-methyl-5-oxo-1H-tetrazole-1-yl)-3-methylphenyl-2-yl]methyloxy}-4-(3-bromophenyl)thiazole], the mortality of insects in assay [2] was found to be 80%.
Turning to `CCCCCCCc1cccc(-c2csc(OCc3c(C)cccc3-n3nnn(C)c3=O)n2)c1` [Compound T146, 2-{[1-(4,5-dihydro-4-methyl-5-oxo-1H-tetrazole-1-yl)-3-methylphenyl-2-yl]methyloxy}-4-(3-heptylphenyl)thiazole], the pest or weed control at 3.5 ppm in assay [3] (192 h, after 8 day) turned out to be 100%.
The same measure, in the same setting: the value for `Cn1nnn(-c2ccc(F)cc2COc2nc(-c3ccc(Br)cc3)cs2)c1=O` [Compound T147, 2-{[1-(4,5-dihydro-4-methyl-5-oxo-1H-tetrazole-1-yl)-4-fluorophenyl-2-yl]methyloxy}-4-(4-bromophenyl)thiazole] was 100%; that for `COc1ccc(C)cc1-c1csc(OCc2c(C)cccc2-n2nnn(C)c2=O)n1` [Compound T148, 2-{[1-(4,5-dihydro-4-methyl-5-oxo-1H-tetrazole-1-yl)-3-methylphenyl-2-yl]methyloxy}-4-(5-methyl-2-methoxyphenyl)thiazole] was 100%.
